Key:
[1] = tested on: Mycobacterium tuberculosis; experiment: Photodynamic antibacterial activity against multidrug resistant Mycobacterium tuberculosis assessed as reduction in bacterial burden at 10 ug/ml preincubated for 2 hrs in dark followed by light irradiation at 50 J/cm2 for 500 secs; format: functional
[2] = tested on: Mycobacterium tuberculosis; experiment: Photodynamic antibacterial activity against extensively drug resistant Mycobacterium tuberculosis assessed as reduction in bacterial burden at 10 ug/ml preincubated for 2 hrs in dark followed by light irradiation at 50 J/cm2 for 500 secs; format: functional

For `C=Cc1c(C)c2cc3nc(c(C=O)c4[nH]c(cc5nc(cc1[nH]2)C(C)=C5C)c(C)c4C(=O)O)[C@@H](CCC(=O)O)[C@@H]3C`, the “log(activity)” value [1] was 3.1 and the “log(activity)” value [2] was 2.8.
